Laboratory results taken from paper PMC11318023, “Discovery of VU6008677: A Structurally Distinct Tricyclic M4 Positive Allosteric Modulator with Improved CYP450 Profile” (ACS Medicinal Chemistry Letters, 2024).
Read-outs that look alike come from different tables or passages of the source.

Columns and labels:
CYP 2C9 [1] = molecular target: T1, CYP 2C9 (Homo sapiens, UniProt P11712); parameters: method as in PMID 23177787; details: Figure 1; read-out: Cyp P450 Inhibition (2C9); cited from earlier work
CYP 2D6 [2] = molecular target: T2, CYP 2D6 (Homo sapiens, UniProt P10635); parameters: method as in PMID 23177787; details: Figure 1; read-out: Cyp P450 Inhibition (2D6); cited from earlier work
CYP 1A2 [3] = molecular target: T3, CYP 1A2 (Homo sapiens, UniProt P05177); parameters: method as in PMID 23177787; details: Figure 1; read-out: Cyp P450 Inhibition (1A2); cited from earlier work
T3 sequence (P05177 1-516): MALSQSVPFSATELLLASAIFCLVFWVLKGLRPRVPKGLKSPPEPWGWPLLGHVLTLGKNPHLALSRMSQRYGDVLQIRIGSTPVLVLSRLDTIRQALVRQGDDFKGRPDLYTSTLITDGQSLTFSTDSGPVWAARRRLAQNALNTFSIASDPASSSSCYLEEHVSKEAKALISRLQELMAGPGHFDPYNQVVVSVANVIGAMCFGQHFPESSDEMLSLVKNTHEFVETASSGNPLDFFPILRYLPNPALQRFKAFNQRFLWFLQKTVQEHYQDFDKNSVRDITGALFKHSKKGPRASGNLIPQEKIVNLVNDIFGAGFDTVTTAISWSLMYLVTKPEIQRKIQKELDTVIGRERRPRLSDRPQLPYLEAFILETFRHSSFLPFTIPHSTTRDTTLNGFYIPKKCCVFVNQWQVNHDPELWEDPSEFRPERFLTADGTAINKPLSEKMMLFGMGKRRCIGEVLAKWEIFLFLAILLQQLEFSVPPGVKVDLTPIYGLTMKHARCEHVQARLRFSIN

human M2 (hM2) = molecular target: T4, human M2 (hM2) (Homo sapiens, UniProt P08172); experiment: Calcium mobilization assay, hM2/Gqi5-CHO cells, with EC20 acetylcholine; format: cell-based
T4 construct: expressed in transfected cells
T4 sequence (P08172 1-466): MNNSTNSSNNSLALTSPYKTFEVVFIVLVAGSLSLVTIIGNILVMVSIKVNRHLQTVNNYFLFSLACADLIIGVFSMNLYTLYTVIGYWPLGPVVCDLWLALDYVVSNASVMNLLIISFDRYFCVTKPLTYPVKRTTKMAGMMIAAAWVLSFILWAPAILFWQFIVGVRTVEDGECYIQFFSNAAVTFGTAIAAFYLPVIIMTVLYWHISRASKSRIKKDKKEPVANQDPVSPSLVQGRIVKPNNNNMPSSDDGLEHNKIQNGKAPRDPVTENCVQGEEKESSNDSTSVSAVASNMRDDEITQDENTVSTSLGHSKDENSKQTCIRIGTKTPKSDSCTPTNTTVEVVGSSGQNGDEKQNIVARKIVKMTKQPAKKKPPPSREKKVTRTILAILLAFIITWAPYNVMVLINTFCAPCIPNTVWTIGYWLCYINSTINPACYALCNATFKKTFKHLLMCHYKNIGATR
From the text: buffer remained in the cell plates. […] After establishment of a […]

[4] = Intrinsic clearance in rat liver microsomes (substrate depletion), predicted hepatic clearance; format: in vitro ADME; details: for CLint scaled at 1 µM: pH 7.4, rat liver microsomes; for CLhep, rat (predicted hepatic clearance): predicted from rat microsomal CLint
CYP 2D6 [5] = molecular target: T2, CYP 2D6; experiment: CYP450 inhibition in pooled human liver microsomes, CYP-specific probe substrates; format: in vitro ADME; details: pooled HLM, NADPH, CYP-specific probe substrate
[6] = Binding in plasma from rat, equilibrium dialysis; format: in vitro ADME; details: read-out: rat fu,plasma
CYP 2C9 [7] = molecular target: T1, CYP 2C9; experiment: CYP450 inhibition in pooled human liver microsomes, CYP-specific probe substrates; format: in vitro ADME; details: pooled HLM, NADPH, CYP-specific probe substrate
[8] = Binding in plasma from human, equilibrium dialysis; format: in vitro ADME; details: human, plasma, read-out: human fu,plasma
[9] = Intrinsic clearance in human liver microsomes (substrate depletion), predicted hepatic clearance; format: in vitro ADME; details: for CLint scaled at 1 µM: pH 7.4, human liver microsomes; for CLhep, human (predicted hepatic clearance): predicted from human microsomal CLint
CYP 3A4 = CYP 3A4 (Homo sapiens, UniProt P08684); experiment: CYP450 inhibition in pooled human liver microsomes, CYP-specific probe substrates; format: in vitro ADME; details: pooled HLM, NADPH, CYP-specific probe substrate
CYP 1A2 [10] = molecular target: T3, CYP 1A2; experiment: as above; format: in vitro ADME; details: pooled HLM, NADPH, CYP-specific probe substrate
[11] = Binding in brain homogenate from rat, equilibrium dialysis; format: in vitro ADME; details: rat, brain homogenate, rat brain homogenates, read-out: rat fu,brain
human M4 (hM4) = molecular target: T5, human M4 (hM4) (Homo sapiens, UniProt P08173); experiment: Calcium mobilization assay, hM4/Gqi5-CHO cells, with EC20 acetylcholine (PAM); details: hM4/Gqi5-CHO cells, calcium mobilization; for hM4 pEC50 / hM4 %ACh Max: EC20 acetylcholine; for hM4 %ACh Max: maximum response; for EC50: read-out: hM4 EC50, EC20 fixed concentration of acetylcholine
T5 sequence (P08173 1-479): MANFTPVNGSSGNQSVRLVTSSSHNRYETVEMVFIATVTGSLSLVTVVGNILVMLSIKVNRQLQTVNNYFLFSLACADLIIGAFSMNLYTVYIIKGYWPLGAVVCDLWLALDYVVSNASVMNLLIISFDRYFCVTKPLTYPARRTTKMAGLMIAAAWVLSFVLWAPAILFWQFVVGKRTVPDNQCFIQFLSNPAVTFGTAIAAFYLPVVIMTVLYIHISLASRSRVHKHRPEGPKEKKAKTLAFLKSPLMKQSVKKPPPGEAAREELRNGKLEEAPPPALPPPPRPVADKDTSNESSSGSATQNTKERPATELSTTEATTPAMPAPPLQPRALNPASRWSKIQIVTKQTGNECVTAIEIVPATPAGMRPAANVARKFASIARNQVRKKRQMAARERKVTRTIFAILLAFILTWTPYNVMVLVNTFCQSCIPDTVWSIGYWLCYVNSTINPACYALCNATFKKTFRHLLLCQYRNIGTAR

[12] = parameters: method as in PMID 18772318, PMID 24442096, PMID 34710625; details: rat; Figure 1, earlier M4 PAMs; cited from earlier work
[13] = parameters: method as in PMID 18772318, PMID 24442096, PMID 34710625; details: rat brain; Figure 1, earlier M4 PAMs; cited from earlier work
[14] = parameters: method as in PMID 18772318, PMID 24442096, PMID 34710625; details: Figure 1, earlier M4 PAMs; cited from earlier work
[15] = parameters: method as in PMID 18772318, PMID 24442096, PMID 34710625; details: human; Figure 1, earlier M4 PAMs; cited from earlier work

T1 sequence (P11712 whole entry): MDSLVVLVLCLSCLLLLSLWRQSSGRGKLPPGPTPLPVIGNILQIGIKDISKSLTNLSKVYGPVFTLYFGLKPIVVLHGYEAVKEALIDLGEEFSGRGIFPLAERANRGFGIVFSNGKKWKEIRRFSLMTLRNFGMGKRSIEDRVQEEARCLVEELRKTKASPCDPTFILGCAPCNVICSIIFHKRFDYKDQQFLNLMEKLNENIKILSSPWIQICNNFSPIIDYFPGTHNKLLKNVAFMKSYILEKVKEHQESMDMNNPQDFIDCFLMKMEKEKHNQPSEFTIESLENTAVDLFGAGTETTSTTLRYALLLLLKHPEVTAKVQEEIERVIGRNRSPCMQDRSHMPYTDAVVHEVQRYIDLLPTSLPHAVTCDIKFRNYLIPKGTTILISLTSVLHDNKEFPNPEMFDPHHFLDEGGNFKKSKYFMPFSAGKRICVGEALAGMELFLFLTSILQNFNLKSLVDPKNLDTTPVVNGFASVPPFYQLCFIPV
T2 sequence (P10635 whole entry): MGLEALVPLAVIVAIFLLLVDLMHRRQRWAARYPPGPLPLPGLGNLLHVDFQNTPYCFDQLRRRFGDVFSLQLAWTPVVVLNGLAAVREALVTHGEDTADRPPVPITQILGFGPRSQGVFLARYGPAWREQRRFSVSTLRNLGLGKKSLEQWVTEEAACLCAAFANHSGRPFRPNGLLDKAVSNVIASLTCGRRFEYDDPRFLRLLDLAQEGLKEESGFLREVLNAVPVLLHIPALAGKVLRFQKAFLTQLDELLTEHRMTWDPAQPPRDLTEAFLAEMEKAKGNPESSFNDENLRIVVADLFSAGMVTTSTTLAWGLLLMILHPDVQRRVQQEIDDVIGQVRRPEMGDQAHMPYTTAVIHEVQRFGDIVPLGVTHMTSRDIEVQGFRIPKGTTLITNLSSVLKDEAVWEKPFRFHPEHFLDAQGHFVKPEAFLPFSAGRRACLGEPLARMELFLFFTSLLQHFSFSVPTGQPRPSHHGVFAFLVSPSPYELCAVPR
Chain of CYP 3A4 (P08684 whole entry): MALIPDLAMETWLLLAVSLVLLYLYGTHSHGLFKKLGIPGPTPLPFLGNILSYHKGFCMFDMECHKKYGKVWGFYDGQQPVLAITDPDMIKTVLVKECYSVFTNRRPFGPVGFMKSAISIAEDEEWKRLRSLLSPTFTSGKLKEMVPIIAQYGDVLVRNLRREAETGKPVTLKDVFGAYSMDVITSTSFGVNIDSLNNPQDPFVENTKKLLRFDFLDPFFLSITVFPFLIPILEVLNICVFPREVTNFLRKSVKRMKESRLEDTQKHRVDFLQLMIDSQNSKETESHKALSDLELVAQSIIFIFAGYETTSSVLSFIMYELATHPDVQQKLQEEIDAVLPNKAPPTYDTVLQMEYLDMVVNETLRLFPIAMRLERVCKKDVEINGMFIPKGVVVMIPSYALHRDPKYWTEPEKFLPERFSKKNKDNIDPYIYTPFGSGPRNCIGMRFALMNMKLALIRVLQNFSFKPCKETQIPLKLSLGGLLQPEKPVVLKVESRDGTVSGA

CLint scaled at 1 µM [4]	CLhep, rat (predicted hepatic clearance) [4]	IC50 (CYP 2D6 [5])	fraction unbound at 6 h, 5 µM [6]	IC50 (CYP 2C9 [7])	fraction unbound at 6 h, 5 µM [8]	CLint scaled at 1 µM [9]	CLhep, human (predicted hepatic clearance) [9]	IC50 (CYP 3A4)	IC50 (CYP 1A2 [10])	fraction unbound at 6 h, 1 µM [11]	hM4 pEC50 (human M4 (hM4))	hM4 %ACh Max (human M4 (hM4))	EC50 (human M4 (hM4))	SMILES	fu,plasma (r) [12]	fu,b (r) [13]	rat CLhep [14]	further results
–	–	–	–	–	–	–	–	–	–	–	–	–	–	Cc1nc2sc(C(=O)NCc3ccncc3)c(N)c2c(C)c1Cl [ML253]	–	–	–	IC50 (CYP 2C9 [1]): < 100 nM; IC50 (CYP 2D6 [2]): 700 nM; IC50 (CYP 1A2 [3]): 120 nM
789 mL/min/kg	64 mL/min/kg	> 30000 nM	0.039	> 30000 nM	0.01	57 mL/min/kg	15 mL/min/kg	24300 nM	< 100 nM	0.003	7.60	110%	25 nM	Cc1c(Cl)cnc2sc3c(NC4CC4)ncnc3c12 [Compound 15g]	–	–	–	EC50 (human M2 (hM2)): 480 nM; hM2 % ACh Max (human M2 (hM2)): 40%
420 mL/min/kg	60 mL/min/kg	7900 nM	0.042	19200 nM	0.013	52 mL/min/kg	15 mL/min/kg	28800 nM	< 100 nM	0.011	7.19	88%	65 nM	Cc1nc2sc3c(NC4CC4)nncc3c2c(C)c1Cl.Cl [Compound 22i]	–	–	–	hM2 EC50 (human M2 (hM2)): inactive
–	–	–	–	–	–	–	–	–	–	–	–	–	–	COc1ccc(CNC(=O)c2sc3nc(C)cc(C)c3c2N)cc1 [VU0152100]	0.011	0.045	65 mL/min/kg	–
–	–	–	–	–	–	–	–	–	–	–	–	–	–	Cc1cc(C)c2c(n1)sc1c(N3CC4(COC4)C3)ncnc12 [VU6007215]	0.206	0.019	63 mL/min/kg	fu,plasma (h) [15]: 0.056
